Source: PMC4079326 (Journal of Medicinal Chemistry, 2014)

How the values were obtained:
[1] = molecular target: AmpC (Escherichia coli, UniProt P00811); assay type: biochemical
[2] = molecular target: TEM-1 (Escherichia coli, UniProt P62593); assay type: biochemical
[3] = molecular target: TEM-30 R244S (Escherichia coli, UniProt P62593, R241S); assay type: biochemical; conditions: 4 vs 5 on TEM-30
[4] = molecular target: T1, CTX-M-9 (Escherichia coli, UniProt Q9L5C8); assay type: biochemical; conditions: class A
[5] = data not shown
[6] = molecular target: T1, CTX-M-9; conditions: read-out: affinity toward CTX-M-9 (Ki); cited from earlier work

With `CC(=O)/C=C/c1c(B(O)O)sc2ccccc12` [Compound 4] the “times less active vs AmpC” value [1] was 8 times, the “times less active vs class A” value [2] was 125 times and the “change of binding vs TEM-30 with respect to compound 5” value [3] was “less than 1 fold”.

For `O=C(O)/C=C/c1c(B(O)O)sc2ccccc12` [Compound 5, 3-(2-carboxyvinyl)benzo(b)thiophene-2-boronic acid], the “gain in affinity vs CTX with respect to starting lead 1” value [4] was 1250 fold, the “stability in microbiology assay conditions over time” value [5] was “unstable” and the “gain in affinity vs TEM-1 with respect to starting lead 1” value ([2]; class A) was 1250 fold. For the same compound, the “improvement of binding energy vs TEM-1” value ([2]; moving from 1 to 5) was 2.8 kcal/mol.

For `O=C(Cc1cccs1)N[C@H](B(O)O)c1cccc(C(=O)O)c1` [SMS2, (1R)-1-(2-thienylacetylamino)-1-(3-carboxyphenyl)methylboronic acid], the Ki [6] is listed as 578 nM.
